“And” between values parts separate entries of the source, which are not always exact repeats. Identical values can stand only once. Like-named read-outs stand apart in the source and are kept apart here.
Test: Mouse pharmacokinetics in CD-1 mice (blood, kidney, liver, lung)
Format: in vivo
Procedure: For the PK study, a total of 42 male CD-1 mice weighing ~20-35 g were acquired from Lingchang/Vital River Laboratory Animal Co., Ltd. (Shanghai/Beijing, P.R. China) and divided into 2 treatment groups. […] was dosed with one low dose (1 mg/kg) and one high dose group (20 mg/kg). For the low-dose groups, nine animals were required for organ quantification with termination at 24 hours. For the high-dose groups, 12 animals were required for organ quantification with termination at 48 hours. The animal was administered either 1 mg/kg or 20 mg/kg of formulation solution (10% HP-β-CD in acetate buffer at pH 4.0) by IV bolus through the left lateral tail vein injection. […] Blood samples were placed on wet ice, mixed, then frozen and stored in a freezer set to -60 °C or lower until analysis. After the blood samples were collected at the terminal time points, the animals were sacrificed, and the liver, lung and kidney were harvested. The tissues were rinsed in cold water and then blotted on filter papers, weighed and homogenized using pre-cooled water at the ratio of 1:4. The tissue homogenate samples were kept at -70 °C until analysis. […] Working standard solutions were spiked into 25 μL of blank matrix on the sample plate. […] The supernatant (20 μL) was transferred into the MS injection plate, then diluted with water before injection for LC-MS/MS analysis. The concentrations of […] were quantified by an LC-MS/MS method. The LC-MS/MS system was a Waters Acquity UPLC System (Milford, MA) coupled to a Sciex Triple Quad 6500 Plus mass spectrometer (AB Sciex, Foster City, CA). The aqueous mobile phase for the analysis was 0.1% formic acid and 2 mM ammonium formate in water/ACN (v:v, 95:5) (A), and the organic mobile phase was 0.1% formic acid and 2 mM ammonium formate in ACN/water (v:v, 95:5) (B). […] Column temperature was set at 50 °C. […] The flow rate was set at 0.7 mL/min. […] The lower limit of quantitation in all matrices was 5.1 ng/mL. The mean time concentration profile was generated for each group, and an overall AUC was then calculated with these sparse samples of rats and mice. […] The following parameters were estimated whenever possible: C0, Back-extrapolated concentration at time 0; Cmax, Maximum observed concentration; Tmax, Time of maximum observed concentration; AUC0-t, Area under the concentration-time curve from hour 0 to the last measurable concentration, estimated by the linear trapezoidal rule; AUC0-336, Area under the concentration-time curve from hour 0 to hour 336, estimated by the linear trapezoidal rule; DN AUC0-336, Dose normalized AUC0-336, calculated as AUC0-336/dose level; […] AUC0-∞ = AUC0-t + Ct/λz, where Ct is the last measurable concentration and λz is the elimination rate constant; t1/2, Elimination half-life, determined by ln(2)/λz; CL, Clearance, calculated as dose/AUC0-inf; Vd, Volume of distribution based on the terminal phase, calculated as: dose/(λz × AUC0-∞) Nominal doses and sampling times were used. […] Embedded zeros were excluded from kinetic analysis.

## Cc1ncsc1-c1ccc(C(C)NC(=O)C2CC(O)CN2C(=O)C(c2cc(N3CCC(CN4CCC(OC5CC(Oc6cc(N7C8CCC7CN(c7cc(-c9ccccc9O)nnc7N)C8)ccn6)C5)CC4)CC3)no2)C(C)C)cc1 (stereo not shown) [A947]
Blood, 0.083 h, 1 mg/kg IV, individual animals, read-out: Concentration (µM) from 1 mg/kg Dosing Blood
  concentration at 0.083 h: 0.351 µM and 0.406 µM
Blood, 0.083 h, 20 mg/kg IV, individual animals, read-out: Concentration (µM) from 20 mg/kg Dosing Blood
  concentration at 8 h: 11.332 µM and 8.845 µM
Blood, 0.25 h, 1 mg/kg IV, individual animals, read-out: Concentration (µM) from 1 mg/kg Dosing Blood
  concentration at 0.083 h: 0.084 µM and 0.113 µM
Blood, 0.25 h, 20 mg/kg IV, individual animals, read-out: Concentration (µM) from 20 mg/kg Dosing Blood
  concentration at 8 h: 3.265 µM and 3.4 µM
Blood, 0.5 h, 1 mg/kg IV, individual animals, read-out: Concentration (µM) from 1 mg/kg Dosing Blood
  concentration at 0.083 h: 0.044 µM and 0.066 µM
Blood, 0.5 h, 20 mg/kg IV, individual animals, read-out: Concentration (µM) from 20 mg/kg Dosing Blood
  concentration at 8 h: 1.604 µM and 1.652 µM
Blood, 1 h, 1 mg/kg IV, individual animals, read-out: Concentration (µM) from 1 mg/kg Dosing Blood
  concentration at 0.083 h: 0.02 µM and 0.026 µM
Blood, 1 h, 20 mg/kg IV, individual animals, read-out: Concentration (µM) from 20 mg/kg Dosing Blood
  concentration at 8 h: 0.769 µM and 0.821 µM
Blood, 2 h, 1 mg/kg IV, individual animals, read-out: Concentration (µM) from 1 mg/kg Dosing Blood
  concentration at 0.083 h: 0.009 µM and 0.013 µM
Blood, 2 h, 20 mg/kg IV, individual animals, read-out: Concentration (µM) from 20 mg/kg Dosing Blood
  concentration at 8 h: 0.221 µM and 0.24 µM
Blood, 4 h, 1 mg/kg IV, individual animals, BLOQ <5.1 ng/mL
  Concentration (µM) from 1 mg/kg Dosing Blood: BLOQ *
Blood, 4 h, 1 mg/kg IV, individual animals, BLOQ <5.1 ng/mL, read-out: Concentration (µM) from 1 mg/kg Dosing Blood
  concentration at 0.083 h: 0.006 µM
Blood, 4 h, 20 mg/kg IV, individual animals, read-out: Concentration (µM) from 20 mg/kg Dosing Blood
  concentration at 8 h: 0.212 µM and 0.306 µM and 0.093 µM and 0.117 µM and 0.098 µM and 0.1 µM
Blood, 8 h, 1 mg/kg IV, individual animals, BLOQ <5.1 ng/mL
  Concentration (µM) from 1 mg/kg Dosing Blood: BLOQ *
Blood, 8 h, 20 mg/kg IV, individual animals, read-out: Concentration (µM) from 20 mg/kg Dosing Blood
  concentration at 8 h: 0.067 µM and 0.056 µM and 0.036 µM and 0.037 µM
Blood, 12 h, 1 mg/kg IV, individual animals, BLOQ <5.1 ng/mL
  Concentration (µM) from 1 mg/kg Dosing Blood: BLOQ *
Blood, 12 h, 20 mg/kg IV, individual animals, read-out: Concentration (µM) from 20 mg/kg Dosing Blood
  concentration at 8 h: 0.015 µM and 0.017 µM
Blood, 24 h, 1 mg/kg IV, individual animals, BLOQ <5.1 ng/mL
  Concentration (µM) from 1 mg/kg Dosing Blood: BLOQ *
Blood, 24 h, 20 mg/kg IV, individual animals, BLOQ <5.1 ng/mL
  Concentration (µM) from 20 mg/kg Dosing Blood: BLOQ *
Blood, 48 h, 20 mg/kg IV, individual animals, BLOQ <5.1 ng/mL
  Concentration (µM) from 20 mg/kg Dosing Blood: BLOQ *
Kidney, 4 h, 1 mg/kg IV, individual animals, read-out: Concentration (µM) from 1 mg/kg Dosing Kidney
  concentration at 24 h: 0.541 µM and 0.391 µM
Kidney, 4 h, 20 mg/kg IV, individual animals, read-out: Concentration (µM) from 20 mg/kg Dosing Kidney
  concentration at 8 h: 14.213 µM and 10.852 µM
Kidney, 8 h, 1 mg/kg IV, individual animals, read-out: Concentration (µM) from 1 mg/kg Dosing Kidney
  concentration at 24 h: 0.341 µM and 0.338 µM
Kidney, 8 h, 20 mg/kg IV, individual animals, read-out: Concentration (µM) from 20 mg/kg Dosing Kidney
  concentration at 8 h: 11.428 µM and 7.712 µM
Kidney, 24 h, 1 mg/kg IV, individual animals, read-out: Concentration (µM) from 1 mg/kg Dosing Kidney
  concentration at 24 h: 0.025 µM and 0.027 µM
Kidney, 24 h, 20 mg/kg IV, individual animals, read-out: Concentration (µM) from 20 mg/kg Dosing Kidney
  concentration at 8 h: 0.295 µM and 0.508 µM
Kidney, 48 h, 20 mg/kg IV, individual animals, read-out: Concentration (µM) from 20 mg/kg Dosing Kidney
  concentration at 8 h: 0.083 µM and 0.066 µM
Liver, 4 h, 1 mg/kg IV, individual animals, read-out: Concentration (µM) from 1 mg/kg Dosing Liver
  concentration at 24 h: 0.069 µM and 0.098 µM
Liver, 4 h, 20 mg/kg IV, individual animals, read-out: Concentration (µM) from 20 mg/kg Dosing Liver
  concentration at 8 h: 66.456 µM and 51.09 µM and 27.754 µM
Liver, 8 h, 1 mg/kg IV, individual animals, read-out: Concentration (µM) from 1 mg/kg Dosing Liver
  concentration at 24 h: 0.039 µM
Liver, 8 h, 20 mg/kg IV, individual animals, read-out: Concentration (µM) from 20 mg/kg Dosing Liver
  concentration at 8 h: 18.535 µM and 24.009 µM
Liver, 24 h, 1 mg/kg IV, individual animals, BLOQ <5.1 ng/mL
  Concentration (µM) from 1 mg/kg Dosing Liver: BLOQ *
Liver, 24 h, 20 mg/kg IV, individual animals, read-out: Concentration (µM) from 20 mg/kg Dosing Liver
  concentration at 8 h: 8.297 µM and 9.7 µM
Liver, 48 h, 20 mg/kg IV, individual animals, read-out: Concentration (µM) from 20 mg/kg Dosing Liver
  concentration at 8 h: 1.133 µM and 2.43 µM and 2.132 µM
Lung, 4 h, 1 mg/kg IV, individual animals, read-out: Concentration (µM) from 1 mg/kg Dosing Lung
  concentration at 24 h: 0.085 µM and 0.099 µM
Lung, 4 h, 20 mg/kg IV, individual animals, read-out: Concentration (µM) from 20 mg/kg Dosing Lung
  concentration at 8 h: 6.463 µM and 5.695 µM
Lung, 8 h, 1 mg/kg IV, individual animals, read-out: Concentration (µM) from 1 mg/kg Dosing Lung
  concentration at 24 h: 0.066 µM and 0.071 µM
Lung, 8 h, 20 mg/kg IV, individual animals, read-out: Concentration (µM) from 20 mg/kg Dosing Lung
  concentration at 8 h: 2.286 µM and 3.054 µM
Lung, 24 h, 1 mg/kg IV, individual animals, read-out: Concentration (µM) from 1 mg/kg Dosing Lung
  concentration at 24 h: 0.011 µM and 0.016 µM
Lung, 24 h, 20 mg/kg IV, individual animals, read-out: Concentration (µM) from 20 mg/kg Dosing Lung
  concentration at 8 h: 0.718 µM and 0.295 µM and 0.794 µM
Lung, 48 h, 20 mg/kg IV, individual animals, read-out: Concentration (µM) from 20 mg/kg Dosing Lung
  concentration at 8 h: 0.36 µM and 0.211 µM and 1.402 µM
male, CD-1, mouse, blood and tissues (kidney, liver, lung), iv, CD-1 mice IV, dose = c0, matrix = c1 of the line
  half-life: 10 to 15 h
male, CD-1, mouse, blood, intravenous, 1 mg/kg, Blood, 0.25 h, 1 mg/kg IV, individual animals, read-out: Concentration (µM) from 1 mg/kg Dosing Blood
  concentration at 0.25 h: 0.089 µM
male, CD-1, mouse, blood, intravenous, 1 mg/kg, Blood, 0.25 h, 1 mg/kg IV, mean, read-out: Concentration (µM) from 1 mg/kg Dosing Blood
  concentration at 0.25 h: 0.095 µM
male, CD-1, mouse, blood, intravenous, 1 mg/kg, Blood, 0.5 h, 1 mg/kg IV, individual animals, read-out: Concentration (µM) from 1 mg/kg Dosing Blood
  concentration at 0.5 h: 0.055 µM
male, CD-1, mouse, blood, intravenous, 1 mg/kg, Blood, 0.5 h, 1 mg/kg IV, mean, read-out: Concentration (µM) from 1 mg/kg Dosing Blood
  concentration at 0.5 h: 0.055 µM
male, CD-1, mouse, blood, intravenous, 1 mg/kg, Blood, 1 h, 1 mg/kg IV, individual animals, read-out: Concentration (µM) from 1 mg/kg Dosing Blood
  concentration at 1 h: 0.027 µM
male, CD-1, mouse, blood, intravenous, 1 mg/kg, Blood, 1 h, 1 mg/kg IV, mean, read-out: Concentration (µM) from 1 mg/kg Dosing Blood
  concentration at 1 h: 0.024 µM
male, CD-1, mouse, blood, intravenous, 1 mg/kg, Blood, 2 h, 1 mg/kg IV, individual animals, read-out: Concentration (µM) from 1 mg/kg Dosing Blood
  concentration at 2 h: 0.012 µM
male, CD-1, mouse, blood, intravenous, 1 mg/kg, Blood, 2 h, 1 mg/kg IV, mean, read-out: Concentration (µM) from 1 mg/kg Dosing Blood
  concentration at 2 h: 0.011 µM
male, CD-1, mouse, blood, intravenous, 20 mg/kg, Blood, 12 h, 20 mg/kg IV, individual animals, read-out: Concentration (µM) from 20 mg/kg Dosing Blood
  concentration at 12 h: 0.019 µM
male, CD-1, mouse, blood, intravenous, 20 mg/kg, Blood, 12 h, 20 mg/kg IV, mean, read-out: Concentration (µM) from 20 mg/kg Dosing Blood
  concentration at 12 h: 0.017 µM
male, CD-1, mouse, blood, intravenous, 20 mg/kg, Blood, 24 h, 20 mg/kg IV, individual animals, BLOQ <5.1 ng/mL, read-out: Concentration (µM) from 20 mg/kg Dosing Blood
  concentration at 24 h: 0.007 µM
male, CD-1, mouse, blood, intravenous, 20 mg/kg, Blood, 24 h, 20 mg/kg IV, mean, read-out: Concentration (µM) from 20 mg/kg Dosing Blood
  concentration at 24 h: 0.007 µM
male, CD-1, mouse, blood, iv, CD-1 mice IV, dose = c0
  Vd: 20 to 23 L/kg
male, CD-1, mouse, in vivo, 1 mg/kg, Blood, 0.083 h, 1 mg/kg IV, individual animals, read-out: Concentration (µM) from 1 mg/kg Dosing Blood
  concentration at 0.083 h: 0.338 µM
male, CD-1, mouse, in vivo, 1 mg/kg, Blood, 0.083 h, 1 mg/kg IV, mean, read-out: Concentration (µM) from 1 mg/kg Dosing Blood
  concentration at 0.083 h: 0.365 µM
male, CD-1, mouse, in vivo, 1 mg/kg, Blood, 4 h, 1 mg/kg IV, individual animals, BLOQ <5.1 ng/mL, read-out: Concentration (µM) from 1 mg/kg Dosing Blood
  concentration at 4 h: 0.005 µM
